In patent publication US11766434B2, “Pyrimidinone derivatives as CDC7 inhibitors” (Cancer Research Technology Limited, priority 2016, dated 2023):

Assays:
[1] = target: Cdc7/ASK (Homo sapiens, UniProt O00311); test: Cdc7 biochemical assay Method 1: 384 well ELISA, MCM2 whole protein substrate, Phospho MCM2 (S53) antibody; parameters: purchased; conditions: ATP 2 μM, 90 minutes, read-out: Biochemical method 1 (pIC50) (converted)
Protocol: This protocol describes a method for assaying Cdc7/ASK for activity. The assay is a 384 well ELISA assay, utilising a whole protein substrate (MCM2) and an antibody against Phospho MCM2 (S53). This site is thought to be specific to Cdc7/ASK phosphorylation and the assay has been validated using knockout mutants.
• TBS: 25 mM Tris pH 7.2, 150 mM NaCl. (Dilute 10× stock by 1:10). • Wash Buffer: TBS+0.05% Tween 20. (Add 100 mL 1 M Tris pH 7.2, 120 mL 5 M NaCl and 2 mL 100% Tween 20 per 4 L). • Kinase Reaction Buffer: 50 mM Tris-HCl pH 8.5, 10 mM MgCl2, 1 mM DTT. (Dilute 10× stock by 1:10 and add 100 μL 1M DTT per 100 mL prior to assay). • Diethanolamine Buffer: 1 M diethanolamine pH 9.8, 0.5 mM MgCl2. • Stop Solution: 1 M NaOH. • MCM2 was expressed and purified in-house and used in the assay at a final assay concentration of 436 ng/well. • Cdc7/ASK is purchased from commercial suppliers and used in the assay at a final assay concentration of 37.97 ng/well or 20.63 nM. • ATP used as a final assay concentration of 2 μM. • Primary Antibody: Rabbit anti-Phospho MCM2 (S53 Antibody (BL3353)), is purchased from commercial suppliers at 0.2 mg/mL and used at a final assay concentration by diluting 1:800 in TBS. • Secondary Antibody: Anti-Rabbit/AP Antibody is supplied is purchased from commercial suppliers at 1 mg/mL and used at a final assay concentration by diluting 1:2000 in TBS. • Development Reagent: Dissolve one 20 mg PNPP tablet (Sigma, product N2765, 20 mg per tablet) per 20 mL diethanolamine Buffer (or one 5 mg PNPP tablet per 5 mL diethanolamine buffer). Cover in foil and leave shaking on a roller shaker at room temperature for up to an hour to dissolve. Methods • 1. Add 20 μL 1× working stock of Substrate (MCM2) in TBS to all wells of a clear, 384 well, Nickel-chelate microplate to give a final concentration of 250 ng/well. Incubate at room temperature for at least 1 hour. Plates can be pre-coated for 1 hour and stored at 4° C. for up to 8 days. • 2. Wash with TBS+0.05% Tween 20 (80 μL x 3). • 3. Add 2 μL 10× test compounds, including the positive control, in 40% DMSO/water to ‘test’ wells. Add 2 μL 40% DMSO/water to ‘control’ and ‘blank’ wells. The final DMSO concentration will be 4%. • 4. Add 13 μL CDCl7/ASK Kinase (1.5× stock) in Kinase Reaction Buffer to ‘test’ and ‘control’ wells to give a final concentration of […]. Add 13 μL Kinase Reaction Buffer to ‘blank’ wells. • 5. Add 5 μL ATP (4× stock) in Kinase Reaction Buffer to all wells to give a final concentration of 2 μM. • 6. Incubate at room temperature for 90 minutes. • 7. Wash with TBS+0.05% Tween 20 (80 μL x 3). • 8. Add 20 μL 1× working solution of Primary Antibody in TBS to all wells. Incubate at room temperature for 30 minutes. • 9. Wash with TBS+0.05% Tween 20 (80 μL x 3). • 10. Add 20 μL 1× working solution of Secondary Antibody in TBS to all wells. Incubate at room temperature for 30 minutes. • 11. Wash with TBS+0.05% Tween 20 (80 μL x 3). • 12. Add 20 μL 1× Development Reagent to all wells. • 13. Incubate at room temperature for 2 hours. Stop the reaction by adding 20 μL Stop Solution to all wells and record Absorbance on a Pherastar plate reader.
Percentage inhibition values were calculated from absorbance values, using the no compound (DMSO) and no enzyme control values as 0% and 100% inhibition, respectively. IC50 determination was performed with ExcelFit software (IDBS) using curve fit 205. Z′ factors were determined for each plate tested and were all above 0.5.

[2] = target: Cdc7 (Homo sapiens, UniProt O00311); test: Cdc7 cell pharmacodynamics assay Method 1: pS53MCM2 levels in HCT116 cells; type: cell-based; parameters: endogenous in cells; conditions: 6 hours treatment, read-out: Biomarker Method 1 (pEC50) (converted)
Chain of Cdc7 (O00311 whole entry): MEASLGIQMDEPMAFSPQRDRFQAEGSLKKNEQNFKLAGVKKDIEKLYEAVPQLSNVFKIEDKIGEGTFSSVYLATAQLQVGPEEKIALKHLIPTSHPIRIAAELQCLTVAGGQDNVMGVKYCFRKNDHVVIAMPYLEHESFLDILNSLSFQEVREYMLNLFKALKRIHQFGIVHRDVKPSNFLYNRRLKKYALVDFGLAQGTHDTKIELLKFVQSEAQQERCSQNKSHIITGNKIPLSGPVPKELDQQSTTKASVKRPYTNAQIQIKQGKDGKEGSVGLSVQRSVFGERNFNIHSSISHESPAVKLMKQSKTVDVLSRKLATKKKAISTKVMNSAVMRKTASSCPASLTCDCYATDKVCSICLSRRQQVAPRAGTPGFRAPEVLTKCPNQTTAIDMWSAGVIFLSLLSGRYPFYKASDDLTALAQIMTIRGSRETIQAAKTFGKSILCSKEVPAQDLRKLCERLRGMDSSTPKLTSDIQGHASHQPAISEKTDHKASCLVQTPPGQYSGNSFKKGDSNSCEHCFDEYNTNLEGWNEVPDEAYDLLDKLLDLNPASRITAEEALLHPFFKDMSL
Chain of Cdc7 (Q9UBU7 whole entry partner): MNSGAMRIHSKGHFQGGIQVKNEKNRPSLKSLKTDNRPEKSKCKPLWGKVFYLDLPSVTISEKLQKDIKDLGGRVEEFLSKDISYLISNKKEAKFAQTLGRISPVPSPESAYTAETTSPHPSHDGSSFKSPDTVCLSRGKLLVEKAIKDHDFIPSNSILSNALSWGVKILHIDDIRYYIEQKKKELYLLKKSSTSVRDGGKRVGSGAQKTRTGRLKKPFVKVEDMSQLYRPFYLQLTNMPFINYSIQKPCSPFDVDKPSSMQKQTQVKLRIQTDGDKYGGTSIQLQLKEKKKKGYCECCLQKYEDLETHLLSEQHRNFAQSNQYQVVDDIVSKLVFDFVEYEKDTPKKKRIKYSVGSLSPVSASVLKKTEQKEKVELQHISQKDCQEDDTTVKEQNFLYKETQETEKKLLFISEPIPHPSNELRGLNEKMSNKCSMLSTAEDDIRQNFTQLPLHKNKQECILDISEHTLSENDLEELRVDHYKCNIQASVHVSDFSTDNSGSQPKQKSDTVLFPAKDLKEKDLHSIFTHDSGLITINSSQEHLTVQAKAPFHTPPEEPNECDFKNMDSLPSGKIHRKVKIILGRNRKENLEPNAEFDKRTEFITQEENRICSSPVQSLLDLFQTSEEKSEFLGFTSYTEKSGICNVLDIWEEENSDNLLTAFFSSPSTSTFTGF
Excerpt: This protocol describes a method to investigate the inhibition of Cdc7 activity of compounds by measuring pS53MCM2 levels in cells after treatment.
• HCT116 cells (wild type P53 positive) • McCoys 5A media (PAA Laboratories Ltd, E15-022) • 10% FCS (Sera Laboratories International Ltd, EU000F Batch: 108005) • 100× L-Glutamine (Invitrogen, 25030-024) • D-PBS without CaCl2 and MgCl2 (Invitrogen, ref. 14190-094) • Trypsin/EDTA (Invitrogen 25300-054) • 2% BSA in PBS • Cell Extraction Buffer (Invitrogen FNN0011) • Protease inhibitor cocktail (Sigma P-2714) • PMSF 0.3M stock in DMSO (Sigma P7626) • Antibody—rabbit pMCM2 Ser53 (Bethyl #A300-756A) • Antibody—goat MCM2 (Bethyl #A300-122A) • Antibody—goat Anti Rabbit IgG HRP (Perbio Science UK Ltd 31462) • 1×PBS • FACE Wash buffer (0.02% Triton X100 in 1×PBS) • SuperSignal ELISA Pico Chemiluminescent Substrate (Perbio Science UK Ltd 37070) Method • 72 hours prior to the start of the experiment plate 1×10^6 HCT116 cells in a 150 cm^2 flask in complete McCoys 5A media (+10% FCS+1× L-glutamine). • Plate 20,000 HCT116 cells per well in standard TC treated 96 well plate in 100 μL complete McCoys 5A media. • Allow cells to settle overnight in incubator set at 37° C. and 5% CO2. • Remove intermediate plate from fridge and place at 37° C. overnight to allow to equilibrate. • Cell treatment: cell assay plate 100 μL; daughter to cell transfer volume 3.33 μL; daughter volume 45 μL; mother plate to daughter volume 5 μL. • Once all cells are treated remove the cells to the incubator and incubate for 6 hours. • Dilute the capture antibody (total MCM2 #A300-122A) 1 in 250 in the required volume of PBS (5 mL per assay plate) and add 50 μL to each well of a Hybond plate excluding wells 12E to 12H. In these wells add 50 μL PBS. Seal the plate and incubate at room temperature fora minimum of 2 hours. • Defrost aliquot of Invitrogen Cell Extraction Buffer (FNN0011) on ice and supplement with appropriate volume of both Sigma protease inhibitor cocktail (P-2714) and PMSF (final cone 1 mM from a […] in DMSO). • After the 6 hour cell treatment time tap out the media from the assay plates and place them in the −70° C. freezer for at least 5 minutes. • Remove plates from freezer and add 20 μL of ice cold complete lysis buffer on ice. Incubate cells for 30 minutes at 4° C. • Add 80 μL per well 2% BSA. • Transfer 80 μL from the lysis plate to the same wells in the capture/ELISA plate. Cover with plate seal and incubate plates overnight at 4° C. • Wash plates with PBS, remove any residual remaining liquid and add 50 μL per well of pMCM2 Ser53 antibody (#A300-756A) diluted 1 in 100 in 2% BSA. Cover plate and incubate at room temperature for 2 hours with gentle shaking. • Wash plates with PBS, remove any residual remaining liquid and Incubate with 50 μL goat anti rabbit antibody (1 in 800 dilution in 2% BSA) for 1 hour at room temperature. • Wash plates with PBS, remove any residual remaining liquid and add 50 μL mixed SuperSignal Pico substrate. • Incubate each plate for 5 minutes at room temperature shielding the plates from direct light (with a cover plate). Read plates with the luminescent detection. Method 2

Chain of Cdc7/ASK (O00311 whole entry): as the sequence (O00311 whole entry) above
Chain of Cdc7/ASK (Q9UBU7 whole entry partner): as the sequence (Q9UBU7 whole entry partner) above

IC50 [1] [nM]	EC50 [2] [nM]	Compound
3.31	110	Cc1ncsc1-c1nc(N2CCN[C@@H](C)C2)c(Cl)c(=O)[nH]1 [Compound 37, 5-chloro-4-[(3S)-3-methylpiperazin-1-yl]-2-(4-methylthiazol-5-yl)-1H-pyrimidin-6-one]
5.89	158	Cc1ncsc1-c1nc(N2CCCC(CO)C2)c(Cl)c(=O)[nH]1 (centres unmarked) [Compound 36, 5-chloro-4-[3-(hydroxymethyl)-1-piperidyl]-2-(4-methylthiazol-5-yl)-1H-pyrimidin-6-one]
2.29	83.2	Cc1ncsc1-c1nc(N2CCNCC2)c(Cl)c(=O)[nH]1 [Compound 38, 5-chloro-2-(4-methylthiazol-5-yl)-4-piperazin-1-yl-1H-pyrimidin-6-one]
8.71	263	Cc1ncsc1-c1nc(N2CCN[C@H](C)C2)c(Cl)c(=O)[nH]1 [Compound 32, 5-chloro-4-[(3R)-3-methylpiperazin-1-yl]-2-(4-methylthiazol-5-yl)-1H-pyrimidin-6-one]
1.41	24	Cc1ncsc1-c1nc(N2CCCC(F)(F)C2)c(Cl)c(=O)[nH]1 [Compound 35, 5-chloro-4-(3,3-difluoro-1-piperidyl)-2-(4-methylthiazol-5-yl)-1H-pyrimidin-6-one]
2.69	100	Cc1ncsc1-c1nc(N2CCC(CO)CC2)c(Cl)c(=O)[nH]1 [Compound 33, 5-chloro-4-[4-(hydroxymethyl)-1-piperidyl]-2-(4-methylthiazol-5-yl)-1H-pyrimidin-6-one]

More lines, now with the values behind:

Compound	IC50 [1] [nM]	EC50 [2] [nM]
Cc1cc(C(=O)N2CCC(c3nc(-c4scnc4C)[nH]c(=O)c3Cl)CC2)no1 [Compound 25, 5-chloro-4-[1-(5-methylisoxazole-3-carbonyl)-4-piperidyl]-2-(4-methylthiazol-5-yl)-1H-pyrimidin-6-one]	4.79	447
Cc1ncsc1-c1nc(C2CCNCC2)c(Cl)c(=O)[nH]1 [Compound 2, 5-chloro-2-(4-methylthiazol-5-yl)-4-(4-piperidyl)-1H-pyrimidin-6-one]	3.16	2000
CCc1ncsc1-c1nc(C2CCOCC2)c(Cl)c(=O)[nH]1 [Compound 13, 5-chloro-2-(4-ethylthiazol-5-yl)-4-tetrahydropyran-4-yl-1H-pyrimidin-6-one]	33.1	1100
Cc1ncsc1-c1nc(N2CCNC(C(F)(F)F)C2)c(Cl)c(=O)[nH]1 (centres unmarked) [Compound 31, 5-chloro-2-(4-methylthiazol-5-yl)-4-[3-(trifluoromethyl)piperazin-1-yl]-1H-pyrimidin-6-one]	3.63	85.1
CCc1[nH]ncc1-c1nc(C2CCOCC2)c(Cl)c(=O)[nH]1 [Compound 15, 5-chloro-2-(5-ethyl-1H-pyrazol-4-yl)-4-tetrahydropyran-4-yl-1H-pyrimidin-6-one]	37.2	1740
Cc1ncsc1-c1nc(C2CCOCC2)c(F)c(=O)[nH]1 [Compound 8, 5-fluoro-2-(4-methylthiazol-5-yl)-4-tetrahydropyran-4-yl-1H-pyrimidin-6-one]	30.2	331
Cc1ncoc1-c1nc(C2CCOCC2)c(Cl)c(=O)[nH]1 [Compound 12, 5-chloro-2-(4-methyloxazol-5-yl)-4-tetrahydropyran-4-yl-1H-pyrimidin-6-one]	363	3630
Cc1ncsc1-c1nc(N2CCC(O)CC2)c(Cl)c(=O)[nH]1 [Compound 29, 5-chloro-4-(4-hydroxy-1-piperidyl)-2-(4-methylthiazol-5-yl)-1H-pyrimidin-6-one]	3.16	158
Cc1ncsc1-c1nc(C2CCN(C(=O)c3cc(C)n(C)n3)CC2)c(Cl)c(=O)[nH]1 [Compound 23, 5-chloro-4-[1-(1,5-dimethylpyrazole-3-carbonyl)-4-piperidyl]-2-(4-methylthiazol-5-yl)-1H-pyrimidin-6-one]	3.31	3890
Cc1ncsc1-c1nc(N2CCC(C)CC2)c(Cl)c(=O)[nH]1 [Compound 30, 5-chloro-4-(4-methyl-1-piperidyl)-2-(4-methylthiazol-5-yl)-1H-pyrimidin-6-one]	3.47	251
